The values that follow come from ChEMBL document CHEMBL1782052, “Artemisinin-dipeptidyl vinyl sulfone hybrid molecules: design, synthesis and preliminary SAR for antiplasmodial activity and falcipain-2 inhibition” (Bioorg Med Chem Lett, 2009).

Assay [1] is described as follows: Inhibition of Plasmodium falciparum recombinant falcipain-2 incubated for 30 mins at room temperature before addition of substrate benzoxycarbonyl-Leu-Arg-7-amino-4-methyl-coumarin by spectrofluorometry.
The nature of assay [2]: Inhibition of Plasmodium chabaudi recombinant chabaupain expressed in Escherichia coli.
Assay [3] has as its system Plasmodium falciparum. Nature of the assay: Antiplasmodial activity against chloroquine-resistant Plasmodium falciparum W2 synchronized ring stage parasites infected in erythrocytes assessed as reduction in parasitemia after 48 hrs by Giemsa staining. The assay is classed as functional, organism-based. The conditions noted are these: W2, 48 h.
Assay [4] has as its system Plasmodium falciparum. Nature of the assay: Antiplasmodial activity against atovaquone-resistant Plasmodium falciparum FCR3. The assay is classed as functional, organism-based.
Assay [5] deals with Plasmodium falciparum. Nature of the assay: Antiplasmodial activity against chloroquine-sensitive Plasmodium falciparum 3D7. The assay is classed as functional, organism-based.
For assay [6], the system named is Plasmodium falciparum. Nature of the assay: Antiplasmodial activity against chloroquine and pyrimethamine-resistant Plasmodium falciparum V1/S. The format is functional, organism-based.
In assay [7] the test system is Plasmodium falciparum. Nature of the assay: Antiplasmodial activity against chloroquine-sensitive and mefloquine-resistant Plasmodium falciparum D6. The assay is classed as functional, organism-based.
Assay [8] is described as follows: Inhibition of falcipain-2 in Plasmodium falciparum trophozoite extracts incubated for 30 mins at room temperature before addition of substrate benzyloxycarbonyl-Phe-Arg-7-amino-4-methyl-coumarin by spectrofluorometry.
Assay [9] deals with Plasmodium falciparum. Nature of the assay: Antiplasmodial activity against Plasmodium falciparum Itg2 synchronized ring stage parasites infected in erythrocytes assessed as reduction in parasitemia after 48 hrs by Giemsa staining. The assay is classed as functional, organism-based. The conditions noted are these: Itg2, 48 h.

As a reminder, the IC50 is the midpoint of a concentration-inhibition curve. On to `CC(C)C[C@H](NC(=O)c1ccc(CO[C@H]2O[C@@H]3O[C@@]4(C)CC[C@H]5[C@H](C)CC[C@@H]([C@H]2C)[C@@]35OO4)cc1)C(=O)N[C@H](/C=C/S(=O)(=O)c1ccccc1)CCc1ccccc1`, for which the IC50 in assay [1] turned out to be 4950 nM; in assay [2], 2290 nM; with Plasmodium falciparum [3], 2.08 nM.
For `C[C@H]1[C@@H](OCc2ccc(C(=O)NCC(=O)N[C@H](/C=C/S(=O)(=O)c3ccccc3)Cc3ccccc3)cc2)O[C@@H]2O[C@@]3(C)CC[C@H]4[C@H](C)CC[C@@H]1[C@@]24OO3`, the IC50 in assay [1] came out at 16500 nM; in assay [2], 56800 nM; with Plasmodium falciparum [3], 4.09 nM; with Plasmodium falciparum [4], 1.75 nM; with Plasmodium falciparum [5] it was 3.11 nM; in the assay on Plasmodium falciparum [6] it was 1.59 nM. Moreover, the IC50 with Plasmodium falciparum [7] turned out to be 4.71 nM.
In the case of `C[C@H]1[C@@H](OCc2ccc(C(=O)N[C@@H](Cc3ccccc3)C(=O)N[C@H](/C=C/S(=O)(=O)c3ccccc3)Cc3ccccc3)cc2)O[C@@H]2O[C@@]3(C)CC[C@H]4[C@H](C)CC[C@@H]1[C@@]24OO3`, the values for the IC50 (in assay [1]; in [2]; in the assay on Plasmodium falciparum [3]) were 22400 nM, 400 nM and 2.27 nM, respectively.
For the compound `C[C@H]1[C@@H](OCc2ccc(C(=O)N[C@@H](Cc3ccccc3)C(=O)N[C@H](/C=C/S(=O)(=O)c3ccccc3)CCc3ccccc3)cc2)O[C@@H]2O[C@@]3(C)CC[C@H]4[C@H](C)CC[C@@H]1[C@@]24OO3`, the IC50 in assay [1] was determined as 9220 nM; in [2], 538 nM; with Plasmodium falciparum [3] it was 3.94 nM.
Consider `C[C@H]1[C@@H](OCc2ccc(C(=O)N[C@@H](Cc3ccccc3)C(=O)N[C@H](/C=C/S(C)(=O)=O)CCc3ccccc3)cc2)O[C@@H]2O[C@@]3(C)CC[C@H]4[C@H](C)CC[C@@H]1[C@@]24OO3`, for which the IC50 was 21600 nM in assay [1]; 4.81 nM in the assay with Plasmodium falciparum [3]; 2 nM in the assay on Plasmodium falciparum [4]; 2.5 nM in the assay with Plasmodium falciparum [5]; 2.25 nM with Plasmodium falciparum [6].
As to `CC(C)C[C@H](NC(=O)c1ccc(CO[C@H]2O[C@@H]3O[C@@]4(C)CC[C@H]5[C@H](C)CC[C@@H]([C@H]2C)[C@@]35OO4)cc1)C(=O)N[C@H](/C=C/S(C)(=O)=O)CCc1ccccc1`, the IC50 in assay [1] worked out at 350 nM; in the assay with Plasmodium falciparum [3], 4.21 nM; in the assay with Plasmodium falciparum [4] it was 1.89 nM; with Plasmodium falciparum [5], 2.48 nM; with Plasmodium falciparum [6], 1.65 nM; with Plasmodium falciparum [7], 4.96 nM.
On to `CC(C)C[C@H](NC(=O)OC(C)(C)C)C(=O)N[C@H](/C=C/S(=O)(=O)c1ccccc1)CCc1ccccc1`, for which the values for the IC50 (in assay [1]; in the assay on Plasmodium falciparum [3]) were 210 nM and greater than 10000 nM, respectively.
As for `CC(C)C[C@H](NC(=O)N1CCOCC1)C(=O)N[C@H](/C=C/S(=O)(=O)c1ccccc1)CCc1ccccc1`, the half-inhibitory concentration (IC50) worked out at 3 nM in assay [8] and 22 nM in the assay on Plasmodium falciparum [9].
Take `C[C@@H]1[C@H](OCc2ccc(C(=O)O)cc2)O[C@@H]2O[C@@]3(C)CC[C@@H]4[C@@H](C)CC[C@@H]1[C@]24OO3` (stereo in doubt) [ARTELINIC ACID]: the IC50 with Plasmodium falciparum [3] stood at 5.66 nM.
In the case of `C[C@@H]1CC[C@H]2[C@@H](C)C(=O)O[C@@H]3O[C@@]4(C)CC[C@@H]1[C@]32OO4` [ARTEMISININ], the IC50 amounted to 12 nM in the assay on Plasmodium falciparum [3], 5.38 nM in the assay with Plasmodium falciparum [4], 9.71 nM in the assay with Plasmodium falciparum [5] and 4.24 nM in the assay on Plasmodium falciparum [6].
On to `CC(C)C[C@H](NC(=O)[C@H]1O[C@@H]1C(=O)O)C(=O)NCCCCN=C(N)N` [E-64], for which the IC50 was 84 nM in assay [1] and 9 nM in assay [2].
